Experimental data as given in PubChem BioAssay AID2765 (Broad Institute, 2010).
Activity calls are given as the source filed them.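 How the source made its calls: active means half-maximal concentration for the rise in caspase light signal at or below ten times the top tested dose; inconclusive means flat fit between 30% and 70% activity, or unreliable curve fit; inactive means the rest.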

Tested on: MEF A1-2A-BIM cells, caspase 3/7 luminescence, 3 h
Test: inducers of caspase signal in A1-dependent MEFs – cell-based, luminescence, retest, A1 inhibitor project, dose response (AID 2765)

SMILES | EC50
O=C(Cn1c(=O)c2cccn2c2cccnc21)N1CCN(c2ccc(Cl)cc2)CC1 | > 35 µM (inactive)
Cc1c(C(=O)O)sc2nc(-c3cccs3)cc(C(F)(F)F)c12 | > 35 µM (inactive)
COc1ccc2c(-c3cc4ccc(OCc5ccc(F)cc5)cc4oc3=O)cc(=O)oc2c1 | 30.1 µM
Cn1cccc1C(=O)NC(=O)COC(=O)c1ccc(S(C)(=O)=O)cc1 | > 35 µM (inactive)
CS(=O)(=O)c1ncc(Cl)c(C(=O)Nc2ccc(OC(F)F)cc2)n1 | > 35 µM (inactive)
CCCCC1CCC(C(=O)N(CC(C)C)c2c(N)n(Cc3ccccc3)c(=O)[nH]c2=O)CC1 (stereo unspecified) | 5.65 µM
O=c1c(Cl)c(Cl)cnn1Cc1ccccc1Cl | > 35 µM (inactive)
COC(=O)N(NC(=O)C(O)(c1ccccc1)c1ccccc1)c1ccc(C)cc1 | > 35 µM (inactive)
CC(C)(C)CC(=O)Nc1nnc(SCC(=O)NC2CCCCC2)s1 | > 35 µM (inactive)
Cc1cc(C)c(C(=O)COC(=O)C2CCN(c3ccc(C(F)(F)F)cn3)CC2)cc1C | > 35 µM (inactive)
COc1cc(/C=C(/C#N)c2nc3ccccc3[nH]2)ccc1OCC(=O)Nc1ccccc1C(C)C | 14.6 µM
O=C(O)/C=C/C(=O)Nc1ccc(OC(F)F)cc1 | > 35 µM (inactive)
CN(Cc1cnc2nc(N)nc(N)c2n1)c1ccc(C(=O)N[C@@H](CCC(=O)O)C(=O)O)cc1 | > 35 µM (inactive)
CN(CC(=O)Nc1ccccc1Cl)CC(=O)Nc1cccc2ccccc12 | > 35 µM (inactive)
COc1ccccc1NC(=O)c1ccc(S(=O)(=O)N2CCCC2)cc1 | > 35 µM (inactive)
O=[N+]([O-])c1ccc(CN2CCOCCOCCOCC2)cc1 | > 35 µM (inactive)
CC(C)Oc1ccccc1C(=O)NC(CO)C(=O)O (stereo unspecified) | > 35 µM (inactive)
COc1ccc(S(=O)(=O)Nc2c(C)n(C)n(-c3ccccc3)c2=O)cc1 | > 35 µM (inactive)
COc1ccc(S(=O)(=O)N2CCC(C(=O)N[C@@H](C)C(=O)NCc3ccncc3)CC2)cc1 | > 35 µM (inactive)
Cc1ccc(S(=O)(=O)n2cc(-c3ccccc3)c3ccccc32)cc1 | > 35 µM (inactive)
COc1ccccc1CCNC(C)CCc1ccc(O)cc1 (stereo unspecified) | > 35 µM (inactive)
O=C(CBr)Nc1c2c(nn1-c1ccccc1)CSC2 | > 35 µM (inactive)
Cc1noc(NS(=O)(=O)c2ccc(NC(=O)c3ccccc3NS(=O)(=O)c3ccc(F)cc3)cc2)c1C | > 35 µM (inactive)
COc1cc2c3c([nH]c2cc1F)C(=O)NCC3 | > 35 µM (inactive)

SMILES | EC50
CCC(=O)N/C(N)=N/c1nc(C)c2cc(C)c(C)cc2n1 | > 35 µM (inactive)
Cc1ccc(C(=O)Nc2nnc(C3=COCCO3)o2)cc1C | > 35 µM (inactive)
Clc1ccc(C(Cn2ccnc2)OCc2c(Cl)cccc2Cl)c(Cl)c1 (stereo unspecified) | > 35 µM (inactive)
Cc1ccc2nc(N(CCCN(C)C)C(=O)c3ccc(S(=O)(=O)N4CCc5ccccc5C4)cc3)sc2c1 | > 35 µM (inactive)
COc1ccccc1C(=O)Nc1ccnn1C1CCN(Cc2cn(C)c3ccccc23)CC1 | > 35 µM (inactive)
O=C(c1ccco1)N1CCN(C(=O)C2CCN(S(=O)(=O)c3cccs3)CC2)CC1 | > 35 µM (inactive)
CC(Oc1ccccc1)C(=O)N1CCN=C1SCc1ccccc1 (stereo unspecified) | > 35 µM (inactive)
CCc1ccc(N(CC)C(=O)c2cn(C)c(=O)c3ccccc23)cc1 | > 35 µM (inactive)
CCN(CC(=O)Nc1c(F)cccc1F)C(=O)/C=C/c1ccc(C)cc1 | > 35 µM (inactive)
CCN(CC)CCN(C(=O)c1cc2c(ccc3ccccc32)oc1=O)c1nc2cc3c(cc2s1)OCCO3 | 8.31 µM
Cc1cc(C(C#N)c2ccc(Cl)cc2)c(Cl)cc1NC(=O)c1cc(I)cc(I)c1O (stereo unspecified) | > 35 µM (inactive)
O=C(CCC(=O)c1cccs1)OCC(=O)c1ccccc1 | > 35 µM (inactive)
CCOc1ccc(CNC2CCCCCCC2)cc1OC | > 35 µM (inactive)
CSc1ccccc1NC(=O)c1ccc(N2CC3CC(C2)c2cccc(=O)n2C3)c(NC(=O)c2cccnc2)c1 (stereo unspecified) | > 35 µM (inactive)
COc1cc2c(cc1OC)C(C)N(C(=O)c1cc3c(s1)-c1ccccc1OC3)CC2 (stereo unspecified) | > 35 µM (inactive)
Cn1ccc(=NC=C(C#N)C#N)c2ccccc21 | > 35 µM (inactive)
O=[N+]([O-])c1ccc(N2CCCC2)c(F)c1Br | > 35 µM (inactive)
Cc1ccc(Sc2ncccc2C(=O)NCc2cc([N+](=O)[O-])ccc2O)cc1C | > 35 µM (inactive)
Cc1ccc(C(=O)/C=C/C(=O)c2ccc(C)cc2)cc1 | 19.4 µM
Cc1cccc(C)c1NC(=S)Nc1ccccc1C(=O)NCc1ccco1 | > 35 µM (inactive)
O=C(COC(=O)c1ccc(CN2CCCC2=O)cc1)Nc1ccc(F)cc1 | > 35 µM (inactive)
O=C(N/C=N/OCc1ccc(Cl)cc1Cl)NOCc1ncc(C(F)(F)F)cc1Cl | > 35 µM (inactive)
COC(=O)c1cc(CNC(=O)CC(C)c2ccccc2)ccc1OC (stereo unspecified) | > 35 µM (inactive)
CCS(=O)(=O)c1nc2ccccc2n1Cc1ccccc1Cl | > 35 µM (inactive)

SMILES | EC50
Cc1cccc(NC(=O)/C(C#N)=C/c2cn(CC(=O)NCc3ccco3)c3ccccc23)c1 | 21.7 µM
FC(F)(F)c1ccc(Sc2n[nH]c(C(F)(F)F)n2)nc1 | > 35 µM (inactive)
Cc1ccc(CCNC(=O)c2cc(-c3ccncc3)nc3ccc(S(=O)(=O)N4CCOCC4)cc23)cc1 | > 35 µM (inactive)
CCc1ccc(NC(=O)c2nc(S(=O)(=O)Cc3ccccc3)ncc2Cl)cc1 | > 35 µM (inactive)
CCN(CC)C(=S)SCC(=O)Nc1ccc(F)cc1 | > 35 µM (inactive)
Cc1noc(C)c1S(=O)(=O)N(C)C[C@H]1Oc2ccc(NC(=O)CCC(F)(F)F)cc2C(=O)N([C@H](C)CO)C[C@@H]1C | > 35 µM (inactive)
COc1ccc(-c2ccc3c(c2)S(=O)(=O)c2cccc(C(=O)NC[C@@H]4CCCO4)c2C3=O)cc1OC | > 35 µM (inactive)
Cc1ccc(C)c(NC(=O)COC(=O)c2cc3ccccc3oc2=O)c1 | > 35 µM (inactive)
CC(C)CCNC(=O)c1cc(-c2ccncc2)nc2ccc(S(=O)(=O)N3CCOCC3)cc12 | > 35 µM (inactive)
CCOC(=O)C1=NOC(COc2ccccc2C=O)C1 (stereo unspecified) | > 35 µM (inactive)
Cc1occc1-c1nnc(-c2cc([N+](=O)[O-])cc([N+](=O)[O-])c2)o1 | > 35 µM (inactive)
COC(=O)C[C@H]1c2ccccc2S(=O)(=O)N1c1cccc(OC)c1 | > 35 µM (inactive)
O=C(/C=C/c1ccc(F)cc1)NC(=S)Nc1ccccc1C(=O)NC1CCCCC1 | > 35 µM (inactive)
NC(=NCCCCCCN=C(N)/N=C(\N)Nc1ccc(Cl)cc1)/N=C(\N)Nc1ccc(Cl)cc1 | > 35 µM (inactive)
CCc1nc(N=Nc2c(O)[nH]c3ccccc23)c2c3c(sc2n1)CCC3 | 20.8 µM
Cc1c(CCCC(=O)O)sc(N)c1C(=O)c1cccc(C(F)(F)F)c1 | > 35 µM (inactive)
COCc1cccc(NC(=O)CCc2ccccc2)c1 | > 35 µM (inactive)
CCCc1cc(=O)oc2c(C)c(OCC(=O)Nc3ccc(CN4CCOCC4)cc3)ccc12 | > 35 µM (inactive)
COc1cccc(C(=O)C(C#N)=C(SC)SC)c1 | > 35 µM (inactive)
Cc1ccc(-c2nc(NC(=O)c3nn(C)cc3[N+](=O)[O-])sc2C)cc1 | 9.72 µM
CCOC(=O)/C(=C\c1ccc(OC(F)F)cc1)C1=Nn2c(nnc2-c2ccc(Cl)cc2)SC1 | 6.18 µM
Cc1cc(Oc2ccc(=O)[nH]n2)nc(Cl)n1 | > 35 µM (inactive)
COc1ccc2[nH]c(C(=O)Nc3ccc(F)cc3Br)cc2c1 | > 35 µM (inactive)
OCc1ccc(OCCCOc2cccc3cccnc23)cc1 | > 35 µM (inactive)

SMILES | EC50
CC1=C/C(=N\OS(=O)(=O)c2ccccc2)C(C)=CC1=O | > 35 µM (inactive)
COC(=O)CSc1nc(N)c2c3c(sc2n1)C(c1ccccc1)SC(c1ccccc1)C3 (stereo unspecified) | > 35 µM (inactive)
CCOC(=O)Cc1csc(/N=C/c2c(O)n(-c3ccc(C)c(C)c3)c(=O)c3ccccc23)n1 | 9.23 µM
O=C(CSc1nccc(=O)[nH]1)Nc1ccccc1Sc1ccccc1 | > 35 µM (inactive)
COC(=O)C1=C(C)N(Cc2ccccc2)C(=NCc2cc(OC)c(OC)c(OC)c2)N[C@H]1c1ccccc1 | > 35 µM (inactive)
COc1cc(/C=C(/C#N)C(=O)NCCc2c[nH]c3ccccc23)ccc1OCc1ccccc1F | > 35 µM (inactive)
NC(N)=N/N=C/c1cccc([N+](=O)[O-])c1O | > 35 µM (inactive)
Cc1nc(NC(=O)CN2CCN(c3cccc(Cl)c3)CC2)sc1C(=O)N(C)C | > 35 µM (inactive)
COCc1cc(C)nc(SCC(=O)Nc2ccc3c(c2)OCO3)c1C#N | > 35 µM (inactive)
O=C(Cc1cccc([N+](=O)[O-])c1)Nc1cccc(C(=O)N2CCOCC2)c1 | > 35 µM (inactive)
Clc1nc(NCc2ccco2)nc(N2CCCCC2)n1 | > 35 µM (inactive)
COc1ccc(N2C(=O)CCC(C(=O)O)C2c2ccc(OC)c(OC)c2)cc1 (stereo unspecified) | > 35 µM (inactive)
Cn1c(O)c(C=NCCN2CCN(C(=O)Nc3ccccc3)CC2)c(=O)n(C)c1=O | > 35 µM (inactive)
O=C(COC(=O)/C=C/c1cccc(Cl)c1Cl)Nc1ccc2[nH]c(=O)[nH]c2c1 | > 35 µM (inactive)
Cc1ccc(S(=O)(=O)N2CCCC2)cc1C(=O)NCc1ccccc1CN1CCCC1 | > 35 µM (inactive)
CCOC(=O)c1cc(/C(C)=N/OC(=O)c2ccc(C(C)(C)C)cc2)on1 | > 35 µM (inactive)
Cc1cccc(NC(=S)NCCc2ccc(F)cc2)c1C | > 35 µM (inactive)
Oc1ccc(/C=N/N2CCN(C3c4ccccc4-c4ccccc43)CC2)cc1O | > 35 µM (inactive)
CC(=O)Oc1ccccc1C(=O)Oc1ccccc1C(=O)O | > 35 µM (inactive)
CC(=O)Nc1ccc(C(=O)CN2C(=O)NC3(CCCc4ccccc43)C2=O)c(F)c1 (stereo unspecified) | > 35 µM (inactive)
O=C(Nc1cccc(Cl)c1)c1ccc(OC(=S)N2CCOCC2)cc1 | > 35 µM (inactive)
COCCN(C(=O)CSc1nc2ccccc2c(=O)n1C(C)COC)c1c(N)n(Cc2ccccc2)c(=O)[nH]c1=O (stereo unspecified) | > 35 µM (inactive)
COc1ccccc1CC(=O)N1CCOCC1 | > 35 µM (inactive)
O=C(CN(C(=O)CCC(=O)Nc1nccs1)c1cccc(F)c1)NCc1ccccc1 | > 35 µM (inactive)
